Test [1] has as its target T1, tryptophan synthetase (TS) of wild strain AJ 12036 (Corynebacterium glutamicum, UniProt P06561).
T1 construct: that of the wild strain (AJ 12036); endogenous in cells; host or cells: wild strain AJ 12036 (FERM-P7559, FERM-BP 734), crude sonicate supernatant
T1 sequence (P06561 1-417): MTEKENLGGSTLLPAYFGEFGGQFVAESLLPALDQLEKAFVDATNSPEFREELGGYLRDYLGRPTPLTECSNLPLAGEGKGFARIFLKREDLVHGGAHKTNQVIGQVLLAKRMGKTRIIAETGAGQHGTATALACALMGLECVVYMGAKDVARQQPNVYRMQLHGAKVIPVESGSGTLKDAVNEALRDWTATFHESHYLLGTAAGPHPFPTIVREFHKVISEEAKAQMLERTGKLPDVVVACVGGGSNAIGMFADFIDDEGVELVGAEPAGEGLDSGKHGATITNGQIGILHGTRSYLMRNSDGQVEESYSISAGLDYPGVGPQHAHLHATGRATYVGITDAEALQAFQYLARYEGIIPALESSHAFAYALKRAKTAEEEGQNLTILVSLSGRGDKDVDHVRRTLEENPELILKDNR
T1 sequence (P06562 1-280 partner): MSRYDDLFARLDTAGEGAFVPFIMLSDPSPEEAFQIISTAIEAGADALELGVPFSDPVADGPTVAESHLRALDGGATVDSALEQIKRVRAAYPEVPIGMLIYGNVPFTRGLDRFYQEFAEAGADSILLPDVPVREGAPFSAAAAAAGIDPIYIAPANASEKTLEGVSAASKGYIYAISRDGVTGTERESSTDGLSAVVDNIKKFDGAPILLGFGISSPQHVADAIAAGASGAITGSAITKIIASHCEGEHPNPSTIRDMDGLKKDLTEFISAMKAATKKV
Kind of test: TS (TSB) activity of crude enzyme solution of wild strain AJ 12036 with added L-tryptophan. Type of test: biochemical. To be noted: strain AJ 12036 crude enzyme, 20 mM L-Tryptophan added. As to the method: (§1) A specimen strain was cultured in 20 ml of medium for L-tryptophan production (described hereinafter). From the cultured cells, a lysate was prepared by an ultrasonic wave treatment and centrifuged at 32,000×gfor 30 minutes to obtain the supernatant. The supernatant was used as a crude enzyme solution. Using an enzyme reaction solution (1 ml in total amount) consisting of 100 mM tris hydrochloride buffer (pH 7.8), 0.4 mM indole, 30 mM L-serine, 40 μm pyridoxal-5'-phosphate and 180 mM sodium chloride, TSB activity was measured. The reaction was carried out at 30° C. for 30 minutes, 0.1 ml of 1N NaOH was added, the remaining indole was extracted with toluene, color was then formed by an indole reagent and then the color was measured by a spectrophotometer (at […]).

In test [2] the target is T2, tryptophan synthetase (TS) of transformant AJ 12139 (Corynebacterium glutamicum, UniProt P06561).
T2 construct: plasmid pAJ 319 (pAJ 1844 vector) carrying trpA and trpB of AJ 12030, in TSA-deficient host No. 21
Kind of test: TS (TSB) activity of crude enzyme solution of transformant AJ 12139 with added L-tryptophan. Type of test: biochemical, Brevibacterium lactofermentum. As to the method:
as §1

In the case of `N[C@@H](Cc1c[nH]c2ccccc12)C(=O)O` [L-Tryptophan, L-tryptophan], the activity at 20000 µM in test [1] (0.5 h, read-out: TS activity, relative value in parentheses (0 mM = 100)) was determined as 65%. Further, the “TS activity (amount of decreased indole in mole/min/mg amount of protein)” value in test [1] (30° C., 30 minutes, 0 mM control 7.1) is listed as 4.6 mole/min/mg amount of protein; in test [2] (strain AJ 12139 crude enzyme, 20 mM L-Tryptophan added, 30° C., 30 minutes, 0 mM control 81.0), 66.4 mole/min/mg amount of protein. Further, in test [2] (in the presence of 20 mM L-tryptophan), the “inhibition of TS activity of the transformant (in words)” value is given as “inhibited only slightly”. The “TS activity, relative value in parentheses (0 mM = 100)” value in test [2] (strain AJ 12139 crude enzyme, 20 mM L-Tryptophan added, 30 min) turned out to be 82.
